Source: patent US7820703B2, “Lysophosphatidic acid receptor selective antagonists” (University of Virginia Patent Foundation, priority 2004, dated 2010)
“Also recorded” adds a separate entry of the source.

Legend:
Xenopus laevis ooctyes = experiment: chloride conductance in Xenopus laevis oocytes, endogenous receptor; format: cell-based
Description: (§1) wls-b8L and the other phosphonates were also tested also for activity in three whole cell assays. […] Finally, the activity of wls-b8L in activating a chloride conductance in Xenopus laevis ooctyes was measured.

human platelets = experiment: aggregation of human platelets; format: cell-based; conditions: concentrations up to 10 micromolar
Source text: wls-b8L is expected to be resistant to hydrolysis by phosphohydrolases by virtue of its containing a phosphonate, rather than a phosphate, group. Furthermore this chemical entity (wls-b8L) has two additional desirable properties.

mouse LPA1 [1] = target: T1, mouse LPA1 (Mus musculus, UniProt P61793); experiment: cAMP accumulation in RH7777 cells expressing LPA1; format: cell-based; parameters: expressed in transfected cells; conditions: concentration of 1 μM
T1 sequence (P61793 whole entry): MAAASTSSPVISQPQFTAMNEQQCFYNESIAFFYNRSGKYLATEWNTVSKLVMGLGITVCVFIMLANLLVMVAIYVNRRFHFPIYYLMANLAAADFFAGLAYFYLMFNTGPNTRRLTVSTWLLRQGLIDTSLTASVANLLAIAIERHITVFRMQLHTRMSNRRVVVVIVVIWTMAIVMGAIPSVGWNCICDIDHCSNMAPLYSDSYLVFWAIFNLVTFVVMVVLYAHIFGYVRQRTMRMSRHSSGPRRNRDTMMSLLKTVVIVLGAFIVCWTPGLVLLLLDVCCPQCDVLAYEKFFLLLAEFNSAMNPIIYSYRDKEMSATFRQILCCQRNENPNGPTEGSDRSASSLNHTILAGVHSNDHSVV
Description: (§2) Assays for cAMP accumulation were conducted on populations of 5×10^5 cells stimulated with […] in the presence of the phosphodiesterase inhibitor isomethylbutylxanthine (IBMX) for 15 minutes at 30° C. cAMP was measured by automated radioimmunoassay.
Rat hepatoma RH7777 cell monolayers were transfected with the mLPA1 plasmid DNA using the calcium phosphate precipitate method and clonal populations expressing the neomycin phosphotransferase gene were selected by addition of geneticin (G418) to the culture media. The RH7777 cells were grown in monolayers at 37° C. in a 5% CO02/95% air atmosphere in growth media consisting of: 90% MEM, 10% fetal bovine serum, 2 mM glutamine and 1 mM sodium pyruvate.
as §1

mouse LPA1 [2] = target: T1, mouse LPA1; experiment: GTP[γ35S] binding assay, agonist activity at LPA1; format: biochemical; parameters: expressed in transfected cells; host or cells: HEK293T cells (membranes)
Description: (§3) The appropriate receptor plasmid DNA (encoding mouse LPA1, human LPA2 or human LPA3) was mixed with equal amounts of expression plasmids (pcDNA3) encoding a mutated (C351F) rat Gi2a, cow β1, and γ2 proteins and these DNAs were used to transfect monolayers of HEK293T cells (where ‘T’ indicates expression of the SV-40 virus large T antigen) using the calcium phosphate precipitate method. After about 60 hours, cells were harvested, membranes were prepared, aliquoted and stored at −70° C. until use.
(§4) The GTP[35 γS] assay was performed as described by us previously. Membranes containing 5 ug of protein were incubated in 0.1 ml GTP-binding buffer (in mM: HEPES 50, NaCl 100, MgCl2 10, pH7.5) containing […], […], 0.1 nM GTP[35 γS] (1200 Ci/mmol), and indicated lipid(s) for 30 minutes at 30° C. Samples were analyzed for membrane-bound radionuclide using a Brandel Cell Harvester (Gaithersburg, Md.). The C351F mutation renders the Gi2α protein resistant to inactivation by pertussis toxin or the alkylating agent N-ethylmaleimide; however in practice background binding was sufficiently low to obviate these maneuvers.
(§5) This assay isolates each recombinant LPA receptor and allows analysis of all three receptors using the same system.
(§6) Membranes prepared from these cells are used to measure GTPγ[^35S] binding as a function of test compound concentration. The resulting dose-response curves provide relative potency (EC50) and efficacy (Emax) for the test compounds.

human LPA3 [3] = target: T2, human LPA3 (Homo sapiens, UniProt Q9UBY5); experiment: chloride conductance in Xenopus oocytes injected with human LPA3 mRNA; format: cell-based; parameters: expressed in transfected cells; host or cells: Xenopus laevis oocytes injected with mRNA; conditions: 10 μM applied to the oocyte surface
T2 sequence (Q9UBY5 1-353): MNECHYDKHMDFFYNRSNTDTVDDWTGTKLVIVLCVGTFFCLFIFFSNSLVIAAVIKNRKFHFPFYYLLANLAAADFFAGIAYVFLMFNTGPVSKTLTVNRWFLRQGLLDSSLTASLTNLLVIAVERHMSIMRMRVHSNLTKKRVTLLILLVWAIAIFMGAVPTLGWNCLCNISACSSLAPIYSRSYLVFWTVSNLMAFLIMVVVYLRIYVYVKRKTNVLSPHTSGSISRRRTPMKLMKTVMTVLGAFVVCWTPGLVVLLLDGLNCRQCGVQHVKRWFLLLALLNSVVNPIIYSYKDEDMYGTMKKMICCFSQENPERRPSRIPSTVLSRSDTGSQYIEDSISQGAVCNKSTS
Description: as §1

human LPA2 [4] = target: T3, human LPA2 (Homo sapiens, UniProt Q9HBW0); experiment: chloride conductance in Xenopus oocytes injected with human LPA2 mRNA; format: cell-based; parameters: expressed in transfected cells; host or cells: Xenopus laevis oocytes injected with mRNA; conditions: 10 μM applied to the oocyte surface
T3 sequence (Q9HBW0 whole entry): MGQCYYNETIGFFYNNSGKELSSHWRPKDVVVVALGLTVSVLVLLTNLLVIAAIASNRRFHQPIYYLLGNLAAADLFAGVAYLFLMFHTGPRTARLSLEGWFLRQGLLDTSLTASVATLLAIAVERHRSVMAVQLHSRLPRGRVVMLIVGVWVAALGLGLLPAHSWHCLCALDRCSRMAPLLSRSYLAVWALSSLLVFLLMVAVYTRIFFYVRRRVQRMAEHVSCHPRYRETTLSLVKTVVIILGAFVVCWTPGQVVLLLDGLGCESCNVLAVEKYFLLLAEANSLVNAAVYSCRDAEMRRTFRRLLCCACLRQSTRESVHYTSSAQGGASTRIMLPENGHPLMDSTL
Description: as §1

LPP1 (PAP2a) = target: T4, LPP1 (PAP2a) (Homo sapiens, UniProt O14494); experiment: LPP inhibition, competition with [32P]LPA, LPP1; format: biochemical; conditions: competition with 50 nM [32P]LPA
T4 sequence (O14494 1-284): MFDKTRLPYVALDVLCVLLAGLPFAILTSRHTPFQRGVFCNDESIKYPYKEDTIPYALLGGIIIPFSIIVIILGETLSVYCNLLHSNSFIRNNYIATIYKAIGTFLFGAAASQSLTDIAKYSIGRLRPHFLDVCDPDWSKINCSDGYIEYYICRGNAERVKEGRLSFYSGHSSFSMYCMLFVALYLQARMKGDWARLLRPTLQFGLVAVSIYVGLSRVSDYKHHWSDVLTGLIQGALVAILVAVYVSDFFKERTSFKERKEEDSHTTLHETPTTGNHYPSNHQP
Description: (§7) NOHPP was also tested for activity at the three cloned LPPs. Although the phosphonate head group eliminates the possibility of NOHPP acting as a substrate, it is possible that the compound could be a competitive inhibitor.

LPP3 (PAP2b) = target: T5, LPP3 (PAP2b) (Homo sapiens, UniProt O14495); experiment: LPP inhibition, competition with [32P]LPA, LPP3; format: biochemical; conditions: competition with 50 nM [32P]LPA
T5 sequence (O14495 1-311): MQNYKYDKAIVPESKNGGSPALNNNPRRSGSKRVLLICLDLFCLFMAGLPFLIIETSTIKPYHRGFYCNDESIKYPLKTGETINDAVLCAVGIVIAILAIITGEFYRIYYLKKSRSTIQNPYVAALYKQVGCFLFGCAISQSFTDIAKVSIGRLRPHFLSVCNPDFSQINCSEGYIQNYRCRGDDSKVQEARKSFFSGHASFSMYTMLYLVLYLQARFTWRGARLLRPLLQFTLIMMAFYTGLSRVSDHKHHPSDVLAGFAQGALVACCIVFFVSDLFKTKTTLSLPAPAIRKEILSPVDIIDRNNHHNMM
Description: as §7

human LPA2 [5] = target: T3, human LPA2; experiment: GTP[γ35S] binding assay, agonist activity at LPA2; format: biochemical; parameters: expressed in transfected cells; host or cells: HEK293T cells (membranes)
Description: as §3
(§8) The GTP[35 γS] assay was performed as described by us previously. Membranes containing 5 ug of protein were incubated in 0.1 ml GTP-binding buffer (in mM: HEPES 50, NaCl 100, MgCl2 10, pH7.5) containing […], […], 0.1 nM GTP[35 γS] (1200 Ci/mmol), and indicated lipid(s) for 30 minutes at 30° C. Samples were analyzed for membrane-bound radionuclide using a Brandel Cell Harvester (Gaithersburg, Md.).
as §6

human LPA3 [6] = target: T2, human LPA3; experiment: GTP[γ35S] binding assay, agonist activity at LPA3; format: biochemical; parameters: expressed in transfected cells; host or cells: HEK293T cells (membranes)
Description: as §3, §4, §5, §6

LPA1 receptor = target: T6, LPA1 receptor (Mus musculus, UniProt P61793); experiment: antagonism of LPA-evoked GTP[γ35S] binding at LPA1; format: biochemical; conditions: GTP[γ35S] binding
T6 construct: expressed in transfected cells; host or cells: HEK293T cells (membranes)
T6 sequence (P61793 whole entry): as the sequence (P61793 whole entry) above
Description: as §3, §8
The X-intercept of the linear transformation is equal to the inverse log of the KI.
All compounds were characterized by ^1H and ^13C NMR, mass spectroscopy and, in certain cases, elemental analysis. A GTP[γ35S] binding assay was adapted to assess in vitro activity.
All compounds were characterized by ^1H and ^13C NMR, mass spectroscopy and, in most cases, C, H, N analyses. A membrane-based GTP[γ^35S] binding assay was adapted to assess in vitro activity at the LPA1 and LPA3 receptors.

LPA receptors = experiment: whole cell assays of calcium mobilization or inhibition of cAMP accumulation, agonist activity; format: cell-based
Description: as §2
A FLIPR™ (Molecular Devices, Inc.) was used to measure intracellular calcium in A431 and HEK293T cells. A431 cells were seeded (˜50,000 cells/well) in 96-well clear bottom black microplates (Corning Costar Corp., Cambridge, Mass.) and left overnight in CO2 incubator at 37° C. HEK293T cells were treated likewise, but seeded onto poly D-lysine coated microplates (Becton Dickinson, Franklin Lakes, N.J.). A431 cells were dye-loaded with 4 μM Fluo-3 AM ester (Molecular Probes Inc., Eugene, Oreg.) in a loading buffer (1×HBSS buffer, pH 7.4, containing 20 mM HEPES, 0.1% BSA, and 2.5 mM probenecid) for 1 hour at 37° C. Cells were then washed four times with the loading buffer and exposed in the FLIPR™ to sets of compounds. HEK293T cells were loaded with 2 μM Fluo-4 AM ester (Molecular Probes Inc., Eugene, Oreg.) in the same loading buffer without probenecid for 30 minutes and washed four times before being exposed to compounds in the FLIPR™. […]
The same activity was determined with human LPA1 using a recombinant baculovirus-infected insect Sf9 cell membrane preparation.

Row | Compound | activating a chloride conductance, endogenous receptor (Xenopus laevis ooctyes) | aggregation of human platelets (human platelets) | inhibition of cAMP accumulation, efficacy (mouse LPA1 [1]) | agonist activity at LPA1, in words (mouse LPA1 [2]) | chloride conductance response, oocytes injected with human LPA3 mRNA (human LPA3 [3]) | chloride conductance response, oocytes injected with human LPA2 mRNA (human LPA2 [4]) | inhibition of LPP1 (LPP1 (PAP2a)) | inhibition of LPP3 (LPP3 (PAP2b)) | inhibition of LPP3 (LPP3 (PAP2b); listed as VPC12031) | agonist activity at LPA2, in words (human LPA2 [5]) | agonist activity at LPA3, in words (human LPA3 [6]) | antagonist activity at LPA1, in words (LPA1 receptor) | agonist activity in whole cell assays (LPA receptors)
1 | CCCCCCCC/C=C\CCCCCCCC(=O)NCCCP(=O)(O)O [wls-b8L, (9Z)-N-(3-phosphonopropyl)octadec-9-enamide] | does not evoke this response | does not elicit aggregation | fully efficacious | more potent and efficacious at LPA1 than at either LPA2 or LPA3 | very modest response | very modest response | – | – | – | – | – | – | –
2 | CCCCCCCC/C=C\CCCCCCCC(=O)NCCC(O)P(=O)(O)O (racemic) [NOHPP, (9Z)-N-(rac-3-hydroxy-3-phosphonopropyl)octadec-9-enamide] | – | – | – | fully efficacious; also recorded: as efficacious as, but somewhat less potent than, LPA | – | – | to a lesser extent | inhibited | markedly better at the PAP2b (LPP3) than PAP2a (LPP1) | fully efficacious; also recorded: as efficacious as, but somewhat less potent than, LPA | little activity; also recorded: distinctly less potent and far less efficacious than LPA | – | –
3 | CCCCCCCC/C=C\CCCCCCCC(=O)N[C@@H](COP(=O)(O)O)Cc1ccccc1 [VPC12084] | – | – | – | – | – | – | – | – | – | – | – | did block LPA activity | appreciable agonist activity
